Measurements taken from patent US20240366539A1, “METHODS FOR TREATING AUTISM SPECTRUM DISORDERS” (INSTITUT NATIONAL DE LA SANTÉ ET DE LA RECHERCHE MÉDICALE, priority 2021, published 2024).
“Also recorded” adds a separate entry of the source.

Columns and labels:
Assay type in all cases: in vivo, mouse
Oprm1^−/− mice [1] = assay: Motor stereotypies
Experimental: (§1) Mice were treated with vehicle (NaCl 0.9%; ip, 10 or 20 ml/kg), NaBr (Sigma-Aldrich, Saint-Quentin Fallavier, France) administered either chronically (once a day, 10, 30, 70, 125, 250 and 500 mg/kg; i.p. or per os, in a volume of 20 ml/kg—except for combination with VU0155041: […]) or acutely (250 mg/kg, 20 ml/kg), KBr (Sigma-Aldrich, Saint-Quentin Fallavier, France; 145 mg/kg; i.p., 20 ml/kg), bumetanide (R&D systems, Minneapolis, USA, 0.5 and 2 mg/kg; i.p., 20 ml/kg) or VU0155041 (Cayman Chemicals, Ann Arbor, USA, once a day, i.p., 1 mg/kg, 10 ml/kg). […] When treatment was given chronically, behavioral testing started 8 days after beginning of daily administration. Treatment was maintained for 8 to 18 consecutive days (see timelines in FIGS. 1 and 4), allowing thorough behavioral phenotyping. On testing days, or when treatment was given acutely, drugs (or vehicle) were administered 30 min before behavioral assays.
(§2) Motor stereotypies. To detect motor stereotypies in mutant versus wild-type animals, mice were individually placed in clear standard home cages (21×11×17 cm) filled with 3-cm deep fresh sawdust for 10 min (64). Light intensity was set at 30 lux. Trained experimenters scored numbers of head shakes, as well as rearing, burying, grooming, circling episodes and total time spent burying by direct observation.

Oprm1^−/− mice [2] = assay: Marble-burying
Experimental: as §1
Marble-burying. Marble burying was used as a measure of perseverative behavior (68). Mice were introduced individually in transparent cages (21×11×17 cm) containing 20 glass marbles (diameter: 1.5 cm) evenly spaced on 4-cm deep fresh sawdust. To prevent escapes, each cage was covered with a filtering lid. Light intensity in the room was set at 40 lux. The animals were removed from the cages after 15 min, and the number of marbles buried more than half in sawdust was quoted.

Oprm1^−/− mice [3] = assay: Novelty-suppressed feeding
Experimental: as §1
Novelty-suppressed feeding. Novelty-suppressed feeding (NSF) was measured in 24-hr food-deprived mice, isolated in a standard housing cage for 30 min before individual testing. Three pellets of ordinary lab chow were placed on a white tissue in the center of each arena, lit at 60 lx. Each mouse was placed in a corner of an arena and allowed to explore for a maximum of 15 min. Latency to feed was measured as the time necessary to bite a food pellet. Immediately after an eating event, the mouse was transferred back to home cage (free from cage-mates) and allowed to feed on lab chow for 5 min. Food consumption in the home cage was measured.

Fmr1^−/− mice = assay: Motor stereotypies; conditions: chronic NaBr 250 mg/kg once daily
Experimental: as §1, §2
(§3) To this purpose, we evaluated the effects of chronic NaBr administration at the dose of 250 mg/kg on autism-sensitive behaviors in these lines (FIG. 3A).

Shank3^Δex13-16−/− mice = assay: Motor stereotypies; conditions: Shank3Δex13-16−/− mice; chronic NaBr 250 mg/kg once daily
Experimental: as §1, §2, §3

[4] = system: gene expression in Oprm1 null mice (NAc, CPu, VP/Tu, MeA, VTA/SNc); assay: Real-time quantitative PCR of brain reward/social circuit regions
Experimental: Brains were removed and placed into a brain matrix (ASI Instruments, Warren, MI, USA). Nucleus accumbens (NAc), caudate putamen (CPu), ventral pallidum/olfactory tubercle (VP/Tu), medial nucleus of the amygdala (MeA) and ventral tegmental area/substancia nigra pars compacta (VTA/SNc) were punched out/dissected from 1 mm-thick slices (data not shown). Tissues were immediately frozen on dry ice and kept at −80° C. until use. For each structure of interest, genotype and condition, samples were processed individually (n=8). RNA was extracted and purified using the Direct-Zol RNA MiniPrep kit (Zymo research, Irvine, USA). cDNA was synthetized using the ProtoScript II Reverse Transcriptase kit (New England BioLabs, Évry-Courcouronnes, France). qRT-PCR was performed in quadruplets on a CFX384 Touch Real-Time PCR Detection System (Biorad, Marnes-la-Coquette, France) using iQ-SYBR Green supermix (Bio-Rad) kit with 0.25 μl cDNA in a 12 μl final volume in Hard-Shell Thin-Wall 384-Well Skirted PCR Plates (Bio-rad). Gene-specific primers were designed using Primer3 software to obtain a 100- to 150-bp product. Relative expression ratios were normalized to the level of actin and the 2^−ΔΔCt method was applied to evaluate differential expression level. Gene expression values differing of the mean by more than two standard deviations were considered as outliers and excluded from further calculations.
To shed light on the molecular mechanism involved in beneficial effects of chronic sodium bromide administration, we assessed the effects of a 2-week NaBr treatment on gene expression in Oprm1 null mice across five regions of the brain reward/social circuit: NAc, CPu, VP/Tu, MeA and VTA/SNc. Mice underwent a first session of social interaction after one week under treatment and a second 45 min before sacrifice for qRT-PCR experiment (data not shown). We focused primarily on genes coding for chloride transporters (Slc12a2 [NKCC1], Slc12a4, 5, 6, 7 [KCC1,2,3,4, respectively], ClCa1), GABAA receptor subunits (Gabra1, 2, 3, 4, 5, Gabrb1, 2) and glutamate receptors (Grm2, 4, 5) and subunits (Grin2a, 2b). In addition, we evaluated the expression of marker genes of neuronal expression and plasticity (Fos, Bdnf), social behavior (Oxt) and striatal projection neurons (SPNs; Crh, Drd1a, Drd2, Htr6, Pdyn, Penk).

[5] = Oprm1+/+ mice, chronic NaBr 10-500 mg/kg
[6] = Oprm1−/− mice, chronic NaBr 10-500 mg/kg or bumetanide 0.5 and 2 mg/kg

In the case of `[Br-].[Na+]` [NaBr, sodium bromide], the “number of grooming episodes in wild-type controls” value (Oprm1^−/− mice [1]; [5]) is reported as “dose-dependently increased the number of grooming episodes; also recorded: at 500 mg/kg increased the frequency of grooming episodes and head shakes”, the “number of head shakes in wild-type controls” value (Oprm1^−/− mice [1]; [5]) is reported as “dose-dependently increased; also recorded: at 500 mg/kg increased the frequency of grooming episodes and head shakes” and the “number of head shakes” value (Oprm1^−/− mice [1]; [6]) is reported as “decreased under NaBr treatment since the lowest dose; also recorded: less consistently reduced the number of head shakes (doses over 125 mg/kg)”. For the same compound, the stereotypic circling episodes (Oprm1^−/− mice [1]; [6]) was “decreased under NaBr treatment since the lowest dose”, the “number of rearing episodes” value (Oprm1^−/− mice [1]; both mouse lines (Oprm1−/− and Oprm1+/+), chronic NaBr or bumetanide) was “increased the number of rearing episodes in a dose-dependent manner” and the excessive marble burying (Oprm1^−/− mice [2]; [6]) was “did not suppressed excessive burying in mutant mice”. The “number of buried marbles, global treatment effect” value (Oprm1^−/− mice [2]; both mouse lines, chronic NaBr) was “globally increased burying”, the latency to feed (Oprm1^−/− mice [3]; Oprm1−/− mice, chronic NaBr 70 mg/kg) was “sufficient to normalize latency to feed” and the latency to eat (Oprm1^−/− mice [3]; Oprm1−/− mice, chronic NaBr (since the lowest dose tested) or bumetanide) was “normalized eating latency”. The food intake (Oprm1^−/− mice [3]; both mouse lines, chronic NaBr (since the lowest dose tested) or bumetanide) was “increased food intake in both mouse lines”, the circling episodes (Fmr1^−/− mice) was “normalized all these parameters to WT levels” and the head shakes (Fmr1^−/− mice) was “normalized all these parameters to WT levels”. The circling episodes (Shank3^Δex13-16−/− mice) was “normalized all these parameters to WT levels”, the head shakes (Shank3^Δex13-16−/− mice) was “normalized all these parameters to WT levels” and the spontaneous grooming (Shank3^Δex13-16−/− mice) was “normalized all these parameters to WT levels”. The ClCa1 transcription ([4]; CPu, mice of both genotypes, 2-week NaBr) was “increased ClCa1 transcription in mice of both genotypes”, the Oxt expression ([4]; MeA and VTA/SNc, 2-week NaBr) was “induced Oxt expression in the MeA and VTA/SNc” and the “expression of chloride transporter genes” value ([4]; Oprm1−/− mice, 2-week NaBr treatment, qRT-PCR) was “increased the expression of all tested chloride transporters in Oprm1^−/− mice”. The “expression of Gabra3, Gabra4, Gabra5, Gabrg1 and Gabrb2” value ([4]; Oprm1−/− mice, CPu, 2-week NaBr) was “consistently upregulated the expression of Gabra3, Gabra4, Gabra5, Gabrg1 and Gabrb2 in the CPu of mutant mice”, the “Oxt mRNA levels” value ([4]; Oprm1−/− mice, NAc (former) and VP/Tu (latter), 2-week NaBr) was “normalized by NaBr in the former and partially in the latter” and the Gabra2 expression ([4]; Oprm1−/− mice, NAc and CPu (left high in VP/Tu and MeA), 2-week NaBr) was “stimulated the expression of Gabra2”. The Slc12a5 expression ([4]; Oprm1−/− mice, NAc, CPu and MeA, 2-week NaBr) was “up-regulated the expression of Slc12a5 and Slc12a7”, the Slc12a7 expression ([4]; Oprm1−/− mice, NAc, CPu, MeA and VP/Tu, 2-week NaBr) was “up-regulated the expression of Slc12a5 and Slc12a7” and the Fos expression ([4]; Oprm1−/− mice, NAc, VP/Tu, CPu, 2-week NaBr) was “down-regulated the expression of the early gene Fos in the NAc and VP/Tu and maintained it low in the CPu”. The “ClCa1 mRNA levels” value ([4]; Oprm1−/− mice, NAc, VP/Tu, MeA, VTA/SNc, 2-week NaBr) was “normalized by NaBr treatment in the NAc, increased in the VP/Tu and maintained high in the MeA and VTA/SNc”, the Slc12a2 expression ([4]; Oprm1−/− mice, decreased in all brain regions but the VP/Tu before treatment, 2-week NaBr) was “normalized under bromide treatment” and the Grm4 expression ([4]; all brain regions but the VTA/SNc of Oprm1−/− mice, and NAc of wild-type controls, 2-week NaBr) was “upregulated the expression of Grm4”.
